In PubChem BioAssay (NCI):
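48-hour exposure; five concentrations; linearly interpolated endpoints. At the TGI there is no net growth.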

Legend:
Experiment in all cases: NCI tumour cell line growth inhibition, 48 h
LXFL 529 NSCLC = test system: LXFL 529 NSCLC
HOP-62 NSCLC = test system: HOP-62 NSCLC
OVCAR-5 ovarian = test system: OVCAR-5 ovarian
U251 CNS = test system: U251 CNS
MALME-3M melanoma = test system: MALME-3M melanoma
SK-MEL-28 melanoma = test system: SK-MEL-28 melanoma
SK-OV-3 ovarian = test system: SK-OV-3 ovarian
HCC-2998 colon = test system: HCC-2998 colon
CCRF-CEM leukemia = test system: CCRF-CEM leukemia
SW-620 colon = test system: SW-620 colon
EKVX NSCLC = test system: EKVX NSCLC
786-0 renal = test system: 786-0 renal
SN12C renal = test system: SN12C renal
IGROV1 ovarian = test system: IGROV1 ovarian
KM12 colon = test system: KM12 colon
SF-295 CNS = test system: SF-295 CNS
DLD-1 colon = test system: DLD-1 colon
LOX IMVI melanoma = test system: LOX IMVI melanoma
UACC-62 melanoma = test system: UACC-62 melanoma
DMS 114 small cell lung = test system: DMS 114 small cell lung
NCI-H460 lung = test system: NCI-H460 lung
HT29 colon = test system: HT29 colon
TK-10 renal = test system: TK-10 renal
HOP-92 NSCLC = test system: HOP-92 NSCLC
SR leukemia = test system: SR leukemia
SNB-75 CNS = test system: SNB-75 CNS
OVCAR-3 ovarian = test system: OVCAR-3 ovarian
K-562 leukemia = test system: K-562 leukemia
A498 renal = test system: A498 renal
CAKI-1 renal = test system: CAKI-1 renal
SF-539 CNS = test system: SF-539 CNS
ACHN renal = test system: ACHN renal
HCT-116 colon = test system: HCT-116 colon
HCT-15 colon = test system: HCT-15 colon
NCI-H226 lung = test system: NCI-H226 lung
M19-MEL melanoma = test system: M19-MEL melanoma
M14 melanoma = test system: M14 melanoma
SK-MEL-5 melanoma = test system: SK-MEL-5 melanoma
HL-60(TB) leukemia = test system: HL-60(TB) leukemia
OVCAR-8 ovarian = test system: OVCAR-8 ovarian
COLO 205 colon = test system: COLO 205 colon
UO-31 renal = test system: UO-31 renal
NCI-H522 lung = test system: NCI-H522 lung
SF-268 CNS = test system: SF-268 CNS
SNB-78 CNS = test system: SNB-78 CNS
RXF 393 renal = test system: RXF 393 renal
HOP-18 NSCLC = test system: HOP-18 NSCLC
UACC-257 melanoma = test system: UACC-257 melanoma
DMS 273 small cell lung = test system: DMS 273 small cell lung
XF 498 CNS = test system: XF 498 CNS
KM20L2 colon = test system: KM20L2 colon
OVCAR-4 ovarian = test system: OVCAR-4 ovarian
A549 NSCLC = test system: A549 NSCLC
SNB-19 CNS = test system: SNB-19 CNS
MOLT-4 leukemia = test system: MOLT-4 leukemia
NCI-H23 lung = test system: NCI-H23 lung
SK-MEL-2 melanoma = test system: SK-MEL-2 melanoma
RPMI-8226 leukemia = test system: RPMI-8226 leukemia
RXF-631 renal = test system: RXF-631 renal

`CC(OC1CC(=O)CC2C(=O)C=CC(=O)C12)c1ccccc1` (configuration not stated) gave a TGI (LXFL 529 NSCLC) of 19.8 µM, a TGI (HOP-62 NSCLC) greater than 58.8 µM and a TGI (OVCAR-5 ovarian) of 31.6 µM. It also gave a TGI (U251 CNS) of 27.9 µM, a TGI (MALME-3M melanoma) of 34.9 µM and a TGI (SK-MEL-28 melanoma) of 36.4 µM. The TGI (SK-OV-3 ovarian) was greater than 56.2 µM, the TGI (HCC-2998 colon) was 29.7 µM and the TGI (CCRF-CEM leukemia) was 9.54 µM. For the same molecule, the TGI (SW-620 colon) was 27.3 µM, the TGI (EKVX NSCLC) was 30.6 µM and the TGI (786-0 renal) was 26.9 µM. It also gave a TGI (SN12C renal) of 33.2 µM, a TGI (IGROV1 ovarian) of 31.4 µM and a TGI (KM12 colon) of 32.4 µM. The TGI (SF-295 CNS) was 33 µM, the TGI (DLD-1 colon) was 26.7 µM and the TGI (LOX IMVI melanoma) was 33.3 µM. For the same molecule, the TGI (UACC-62 melanoma) was 29.7 µM, the TGI (DMS 114 small cell lung) was 23 µM and the TGI (NCI-H460 lung) was greater than 59.4 µM. For the same molecule, the TGI (HT29 colon) was 33 µM, the TGI (TK-10 renal) was 31.6 µM and the TGI (HOP-92 NSCLC) was 2.97 µM. The TGI (SR leukemia) was 42.8 µM, the TGI (SNB-75 CNS) was greater than 57.7 µM and the TGI (OVCAR-3 ovarian) was 33.3 µM. The TGI (K-562 leukemia) was greater than 100 µM, the TGI (A498 renal) was 32 µM and the TGI (CAKI-1 renal) was 31.9 µM. It also gave a TGI (SF-539 CNS) of 34.5 µM, a TGI (ACHN renal) of 24.1 µM and a TGI (HCT-116 colon) of 22.4 µM. The TGI (HCT-15 colon) was 31.4 µM, the TGI (NCI-H226 lung) was 36.5 µM and the TGI (M19-MEL melanoma) was 29.8 µM. It also gave a TGI (M14 melanoma) of 33.3 µM, a TGI (SK-MEL-5 melanoma) of 33.6 µM and a TGI (HL-60(TB) leukemia) of 20 µM. For the same molecule, the TGI (OVCAR-8 ovarian) was 33.2 µM, the TGI (COLO 205 colon) was 32 µM and the TGI (UO-31 renal) was 29.5 µM. It also gave a TGI (NCI-H522 lung) of 2.98 µM, a TGI (SF-268 CNS) of 40.9 µM and a TGI (SNB-78 CNS) of 36.3 µM. The TGI (RXF 393 renal) was 35.8 µM, the TGI (HOP-18 NSCLC) was 32.2 µM and the TGI (UACC-257 melanoma) was 35.4 µM. It also gave a TGI (DMS 273 small cell lung) of 33.8 µM, a TGI (XF 498 CNS) of 29.4 µM and a TGI (KM20L2 colon) of 31 µM. The TGI (OVCAR-4 ovarian) was 32.4 µM, the TGI (A549 NSCLC) was 40.2 µM and the TGI (SNB-19 CNS) was greater than 55.9 µM. The TGI (MOLT-4 leukemia) was greater than 49.2 µM, the TGI (NCI-H23 lung) was 33.6 µM and the TGI (SK-MEL-2 melanoma) was 34.9 µM. It also gave a TGI (RPMI-8226 leukemia) of 58.5 µM.

`Fc1ccc2c(c1)SC1Oc3ccccc3-c3c1c-2nn3-c1ccccc1` (configuration not stated) was tested, and the TGI (LXFL 529 NSCLC) was greater than 100 µM, the TGI (HOP-62 NSCLC) was greater than 100 µM and the TGI (OVCAR-5 ovarian) was greater than 100 µM. For the same molecule, the TGI (U251 CNS) was greater than 100 µM, the TGI (MALME-3M melanoma) was greater than 100 µM and the TGI (SK-MEL-28 melanoma) was greater than 100 µM. It also gave a TGI (SK-OV-3 ovarian) greater than 100 µM, a TGI (HCC-2998 colon) greater than 100 µM and a TGI (CCRF-CEM leukemia) greater than 100 µM. For the same molecule, the TGI (SW-620 colon) was greater than 100 µM, the TGI (EKVX NSCLC) was greater than 100 µM and the TGI (786-0 renal) was greater than 100 µM. The TGI (IGROV1 ovarian) was greater than 100 µM, the TGI (KM12 colon) was greater than 100 µM and the TGI (SF-295 CNS) was greater than 100 µM. The TGI (DLD-1 colon) was greater than 100 µM, the TGI (LOX IMVI melanoma) was greater than 100 µM and the TGI (DMS 114 small cell lung) was greater than 100 µM. It also gave a TGI (NCI-H460 lung) greater than 100 µM, a TGI (HT29 colon) greater than 100 µM and a TGI (TK-10 renal) greater than 100 µM. It also gave a TGI (HOP-92 NSCLC) greater than 100 µM, a TGI (SNB-75 CNS) greater than 100 µM and a TGI (OVCAR-3 ovarian) greater than 100 µM. It also gave a TGI (K-562 leukemia) greater than 100 µM, a TGI (A498 renal) greater than 100 µM and a TGI (SF-539 CNS) greater than 100 µM. The TGI (ACHN renal) was greater than 100 µM, the TGI (HCT-116 colon) was greater than 100 µM and the TGI (M19-MEL melanoma) was greater than 100 µM. It also gave a TGI (HL-60(TB) leukemia) greater than 100 µM, a TGI (OVCAR-8 ovarian) greater than 100 µM and a TGI (COLO 205 colon) greater than 100 µM. The TGI (UO-31 renal) was greater than 100 µM, the TGI (NCI-H522 lung) was greater than 100 µM and the TGI (SF-268 CNS) was greater than 100 µM. It also gave a TGI (SNB-78 CNS) greater than 100 µM, a TGI (RXF 393 renal) greater than 100 µM and a TGI (HOP-18 NSCLC) greater than 100 µM. It also gave a TGI (UACC-257 melanoma) greater than 100 µM, a TGI (DMS 273 small cell lung) greater than 100 µM and a TGI (XF 498 CNS) greater than 100 µM. For the same molecule, the TGI (KM20L2 colon) was greater than 100 µM, the TGI (RXF-631 renal) was greater than 100 µM and the TGI (A549 NSCLC) was greater than 100 µM. It also gave a TGI (MOLT-4 leukemia) greater than 100 µM, a TGI (NCI-H23 lung) greater than 100 µM and a TGI (SK-MEL-2 melanoma) greater than 100 µM. It also gave a TGI (RPMI-8226 leukemia) greater than 100 µM.
